Experimental data reported in ChEMBL document CHEMBL2203251, “Discovery of two clinical histamine H(3) receptor antagonists: trans-N-ethyl-3-fluoro-3-[3-fluoro-4-(pyrrolidinylmethyl)phenyl]cyclobutanecarboxamide (PF-03654746) and trans-3-fluoro-3-[3-fluoro-4-(pyrrolidin-1-ylmethyl)phenyl]-N-(2-methylpropyl)cyclobutanecarboxamide (PF-03654764)” (J Med Chem, 2011).
Where “and” joins values, the source holds several entries; their conditions need not be identical. Equal values may be shown once.

Experiments:
[1] = Toxicity in po dosed Sprague-Dawley rat administered for 4 days; format: organism-based; details: in vivo
in vitro [2] = details: human, Caco-2
Description: Permeability across apical to basolateral side in human Caco2 cells at 2 uM

in vivo [3] = details: Sprague-Dawley, rat, po
Description: Tmax in po dosed Sprague-Dawley rat administered for 14 days

[4] = AUC in Sprague-Dawley rat at >[…] mg/kg, po administered for 4 days; format: ADME, organism-based; details: plasma, 50 mg/kg
in vivo [5] = details: beagle, dog, po
Description: Toxicity in po dosed beagle dog administered for 7 days

Canis familiaris [6] = experiment: Toxicity in beagle dog assessed as compound-induced cadiomyocyte vacuole formation at 25 mg/kg, po administered for 7 days; format: organism-based, Canis lupus familiaris; parameters: dose 25 mg/kg, route oral; details: in vivo, 168 h
in vitro [7] = details: human, plasma
Description: Fraction unbound in human plasma

Rattus norvegicus [8] = experiment: Toxicity in Sprague-Dawley rat assessed as mortality at 400 mg/kg, po administered for 4 days; format: organism-based; parameters: dose 400 mg/kg, route oral; details: in vivo, 96 h
Rattus norvegicus [9] = experiment: Toxicity in Sprague-Dawley rat assessed as compound-induced phospholipidosis in kidney at >= 50 mg/kg, po administered for 4 days; format: organism-based; parameters: dose 50 mg/kg, route oral; details: in vivo, 96 h
in vivo [10] = details: beagle, dog, po; remark: listed apart in the source
Description: Tmax in po dosed beagle dog administered for 7 days

Histamine H3 receptor [11] = biological target: T1, Histamine H3 receptor (Homo sapiens, UniProt Q9Y5N1)
T1 sequence (Q9Y5N1 whole entry): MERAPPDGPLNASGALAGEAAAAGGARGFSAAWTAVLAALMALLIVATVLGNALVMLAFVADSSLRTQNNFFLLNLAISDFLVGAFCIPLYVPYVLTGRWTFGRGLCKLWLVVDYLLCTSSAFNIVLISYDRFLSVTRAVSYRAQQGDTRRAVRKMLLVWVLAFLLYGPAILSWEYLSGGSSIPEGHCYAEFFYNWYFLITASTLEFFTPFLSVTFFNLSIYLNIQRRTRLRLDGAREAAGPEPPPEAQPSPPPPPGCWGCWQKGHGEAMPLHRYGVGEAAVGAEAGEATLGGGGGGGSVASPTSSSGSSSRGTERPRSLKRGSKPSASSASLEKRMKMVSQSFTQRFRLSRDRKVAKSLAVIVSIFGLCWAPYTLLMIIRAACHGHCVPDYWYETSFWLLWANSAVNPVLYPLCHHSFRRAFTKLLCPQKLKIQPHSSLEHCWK
Description: Displacement of [3H]-n-alpha-methylhistamine from human histamine H3 receptor homogenate after 60 mins by scintillation counting

[12] = AUC (0 to 24 hrs) in po dosed Sprague-Dawley rat administered for 4 days; format: ADME, organism-based; parameters: time < 24 hr, route oral; details: plasma
in vivo [13] = details: Sprague-Dawley, rat, po; remark: listed apart in the source
Description: Tmax in po dosed Sprague-Dawley rat administered for 4 days

in vitro [14] = details: rat, plasma
Description: Fraction unbound in rat plasma

in vivo [15] = details: Sprague-Dawley, rat, plasma, po
Description: AUC (0 to 24 hrs) in po dosed Sprague-Dawley rat administered for 14 days

Rattus norvegicus [16] = experiment: Toxicity in Sprague-Dawley rat assessed as compound-induced phospholipidosis in lung at >= 50 mg/kg, po administered for 4 days; format: organism-based; parameters: dose 50 mg/kg, route oral; details: in vivo, 96 h
Histamine H3 receptor [17] = biological target: T2, Histamine H3 receptor (Rattus norvegicus, UniProt Q9QYN8)
T2 sequence (Q9QYN8 whole entry): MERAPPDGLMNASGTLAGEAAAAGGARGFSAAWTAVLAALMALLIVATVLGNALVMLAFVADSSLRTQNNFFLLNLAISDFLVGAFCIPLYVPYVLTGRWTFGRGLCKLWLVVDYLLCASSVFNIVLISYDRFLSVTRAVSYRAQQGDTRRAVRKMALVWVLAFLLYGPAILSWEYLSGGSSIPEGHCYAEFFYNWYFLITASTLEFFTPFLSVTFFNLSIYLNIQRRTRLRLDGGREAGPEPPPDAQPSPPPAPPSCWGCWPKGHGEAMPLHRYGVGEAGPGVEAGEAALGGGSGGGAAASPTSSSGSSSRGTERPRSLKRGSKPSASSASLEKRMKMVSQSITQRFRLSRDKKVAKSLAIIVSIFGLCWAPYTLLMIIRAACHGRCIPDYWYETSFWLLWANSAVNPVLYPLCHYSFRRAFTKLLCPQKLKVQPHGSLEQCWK
Description: Antagonist activity at rat histamine H3 receptor expressed in human HEK293 cells assessed as inhibition of forskolin-induced cAMP release pretreated 10 mins prior forskolin stimulation measured after 4.5 hrs by spectrofluorimetric analysis

[18] = biological target: Voltage-gated inwardly rectifying potassium channel KCNH2 (Homo sapiens, UniProt Q12809); experiment: Inhibition of human Erg expressed in human HEK293 cells; format: cell-based
Voltage-gated inwardly rectifying potassium channel KCNH2, sequence (Q12809 whole entry): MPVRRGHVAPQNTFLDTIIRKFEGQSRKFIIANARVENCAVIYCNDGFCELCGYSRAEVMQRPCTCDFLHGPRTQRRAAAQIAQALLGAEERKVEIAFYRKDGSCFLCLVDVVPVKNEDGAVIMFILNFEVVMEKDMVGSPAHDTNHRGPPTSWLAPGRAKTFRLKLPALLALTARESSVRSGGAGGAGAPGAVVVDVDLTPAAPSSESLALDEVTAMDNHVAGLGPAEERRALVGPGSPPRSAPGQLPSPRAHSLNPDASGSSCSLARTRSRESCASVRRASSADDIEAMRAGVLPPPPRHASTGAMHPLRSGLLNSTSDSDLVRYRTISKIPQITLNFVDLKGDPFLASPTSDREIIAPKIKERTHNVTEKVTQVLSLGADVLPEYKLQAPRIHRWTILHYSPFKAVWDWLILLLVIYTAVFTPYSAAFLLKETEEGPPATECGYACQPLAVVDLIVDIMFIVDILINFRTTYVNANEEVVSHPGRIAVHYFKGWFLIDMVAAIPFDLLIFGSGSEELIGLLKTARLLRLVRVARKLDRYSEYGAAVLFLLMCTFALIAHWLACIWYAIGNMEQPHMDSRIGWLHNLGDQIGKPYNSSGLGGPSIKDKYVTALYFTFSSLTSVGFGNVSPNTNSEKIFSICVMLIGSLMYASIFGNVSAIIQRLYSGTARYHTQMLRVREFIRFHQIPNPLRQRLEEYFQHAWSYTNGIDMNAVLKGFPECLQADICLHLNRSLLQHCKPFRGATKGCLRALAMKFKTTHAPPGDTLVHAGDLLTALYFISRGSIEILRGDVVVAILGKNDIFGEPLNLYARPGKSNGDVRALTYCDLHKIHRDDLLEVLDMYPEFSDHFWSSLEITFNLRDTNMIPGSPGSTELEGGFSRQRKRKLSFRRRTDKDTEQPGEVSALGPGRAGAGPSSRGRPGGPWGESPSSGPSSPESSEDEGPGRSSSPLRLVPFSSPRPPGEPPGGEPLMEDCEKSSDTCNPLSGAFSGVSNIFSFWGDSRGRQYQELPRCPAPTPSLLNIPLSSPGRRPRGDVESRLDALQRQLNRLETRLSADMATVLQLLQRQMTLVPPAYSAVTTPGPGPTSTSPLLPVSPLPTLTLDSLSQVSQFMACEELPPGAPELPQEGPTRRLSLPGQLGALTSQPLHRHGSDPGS

in vivo [19] = details: beagle, dog, po; remark: listed apart in the source
Description: Cmax in po dosed beagle dog administered for 7 days

Histamine H3 receptor [20] = biological target: T1, Histamine H3 receptor; remark: listed apart in the source
Description: Antagonist activity at human histamine H3 receptor expressed in human HEK293 cells assessed as inhibition of forskolin-induced cAMP release pretreated 10 mins prior forskolin stimulation measured after 4.5 hrs by spectrofluorimetric analysis

[21] = Genotoxicity in micronucleus
[22] = Apparent permeability across apical to basolateral side in MDCK cells at 2 uM; format: ADME, cell-based, Canis lupus familiaris; details: dog
Rattus norvegicus [23] = experiment: Toxicity in Sprague-Dawley rat assessed as compound-induced phospholipidosis at 5 to 30 mg/kg, po administered for 14 days; format: organism-based; parameters: dose 5-30 mg/kg, route oral; details: in vivo, 336 h
in vitro [24] = details: human, liver microsomes
Description: Half life in human liver microsomes

[25] = Cmax in po dosed Sprague-Dawley rat administered for 4 days; format: ADME, organism-based; parameters: route oral; details: in vivo
in vivo [26] = details: Sprague-Dawley, rat, po; remark: listed apart in the source
Description: Cmax in po dosed Sprague-Dawley rat administered for 14 days

Rattus norvegicus [27] = experiment: Toxicity in Sprague-Dawley rat assessed as compound-induced phospholipidosis at 30 mg/kg, po administered for 14 days; format: organism-based; parameters: dose 30 mg/kg, route oral; details: in vivo, 336 h
MDR1 (human) = experiment: in vitro; details: dog, MDCK-MDR1
Description: Efflux ratio of permeability across basal to apical side over apical to basolateral side in dog MDCK cells expressing human MDR1

in vivo [28] = details: beagle, dog, plasma, po
Description: AUC (0 to 24 hrs) in po dosed beagle dog administered for 7 days

[29] = Cmax in Sprague-Dawley rat at 400 mg/kg, po administered for 4 days; format: ADME, organism-based; parameters: dose 400 mg/kg, route oral; details: in vivo
Histamine H3 receptor [30] = biological target: T2, Histamine H3 receptor; remark: listed apart in the source
Description: Displacement of [3H]-n-alpha-methylhistamine from rat histamine H3 receptor homogenate after 60 mins by scintillation counting

Canis familiaris [31] = experiment: Toxicity in beagle dog assessed as compound-induced cadiomyocyte vacuole formation at 10 mg/kg, po administered for 7 days; format: organism-based, Canis lupus familiaris; parameters: dose 10 mg/kg, route oral; details: in vivo, 168 h
[32] = AUC in Sprague-Dawley rat at 5 mg/kg, po administered for 4 days; format: ADME, organism-based; parameters: dose 5 mg/kg, route oral; details: plasma
Liver microsomes = details: human
Description: Unbound intrinsic clearance in human liver microsomes

in vivo [33] = details: Sprague-Dawley, rat, po; remark: listed apart in the source
Description: Toxicity in po dosed Sprague-Dawley rat administered for 14 days

Homo sapiens [34] = species on record: Homo sapiens; experiment: Selectivity ratio of Ki for human histamine H1 receptor to Ki for human histamine H3 receptor
in vivo [35] = details: Sprague-Dawley, rat, po; remark: listed apart in the source
Description: Oral bioavailability in Sprague-Dawley rat

Homo sapiens [36] = species on record: Homo sapiens; experiment: Selectivity ratio of Ki for human histamine H2 receptor to Ki for human histamine H3 receptor
Homo sapiens [37] = species on record: Homo sapiens; experiment: Selectivity ratio of Ki for human histamine H4 receptor to Ki for human histamine H3 receptor
[38] = AUC in beagle dog at 50 mg/kg, po administered for 7 days measured on day 1; format: ADME, organism-based, Canis lupus familiaris; parameters: dose 50 mg/kg, route oral; details: plasma
Canis familiaris [39] = experiment: Toxicity in beagle dog assessed as compound-induced cadiomyocyte vacuole formation at 30 mg/kg, po administered for 7 days; format: organism-based, Canis lupus familiaris; parameters: dose 30 mg/kg, route oral; details: in vivo, 168 h
[40] = human, thle, 24 h
Description: Toxicity in human THLE cells assessed as drug-induced phospholipid accumulation after 24 hrs by Hoechst staining-based microscopic analysis

in vivo [41] = details: beagle, dog, po, 50 mg/kg
Canis familiaris [42] = experiment: Toxicity in beagle dog assessed as testicular degradation at 30 mg/kg, po administered for 7 days; format: organism-based, Canis lupus familiaris; parameters: dose 30 mg/kg, route oral; details: in vivo, 168 h
[43] = AUC in beagle dog at 30 mg/kg, po administered for 7 days; format: ADME, organism-based, Canis lupus familiaris; parameters: dose 30 mg/kg, route oral; details: plasma
Canis familiaris [44] = experiment: Toxicity in beagle dog assessed as convulsion at 50 mg/kg, po administered for 7 days measured on day 2; format: organism-based, Canis lupus familiaris; parameters: dose 50 mg/kg, route oral; details: in vivo, 168 h
[45] = AUC in Sprague-Dawley rat at 10 to 300 mg/kg, po administered for 14 days measured on day 1; format: ADME, organism-based; parameters: dose 10-300 mg/kg, route oral; details: plasma

Description for physchem: Dissociation constant, pKa of the compound

SMILES | Papp A→B at 2 µM (in vitro [2]) | Tmax at 336 h (in vivo [3]) | MTD at 168 h (in vivo [5]) | fraction unbound (in vitro [7]) | Tmax at 168 h (in vivo [10]) | Ki (Histamine H3 receptor [11]) | Tmax at 96 h (in vivo [13]) | fraction unbound (in vitro [14]) | AUC at 24 h (in vivo [15]) | Ki (Histamine H3 receptor [17]) | Cmax at 168 h (in vivo [19]) | Ki (Histamine H3 receptor [20]) | pKa (physchem) | half-life (in vitro [24]) | Cmax at 336 h (in vivo [26]) | efflux ratio (MDR1 (human)) | AUC at 24 h (in vivo [28]) | Ki (Histamine H3 receptor [30]) | CL free (Liver microsomes) | MTD at 336 h (in vivo [33]) | other results
c1cc([C@H]2C[C@@H](CN3CCOCC3)C2)ccc1CN1CCCC1 | 8.2 ×10⁻⁶ cm/s | 30 min | < 10 mg/kg | 0.78 | 30 min | 2.2 nM | 30 min | 0.72 | 15500 ng·h/mL | 3.5 nM | 0.148 µM | 0.89 nM | 7.7 | > 120 min | 5 µM | < 0.95 | 740 ng·h/mL | 7.7 nM | < 8 mL/min/kg | ≥ 30 mg/kg | MTD at 96 h [1]: ≥ 5 mg/kg; AUC at 96 h [4]: 17400 ng·h/mL; Activity (Canis familiaris [6]): Toxic; Activity (Rattus norvegicus [8]): Toxic; Activity (Rattus norvegicus [9]): Toxic; AUC at 24 h [12]: 1240 ng·h/mL; Activity (Rattus norvegicus [16]): Toxic; IC50 [18]: 300000 nM; Activity [21]: Non-toxic; Papp A→B at 2 µM [22]: > 10 ×10⁻⁶ cm/s; Activity (Rattus norvegicus [23]): Toxic; Cmax [25]: 0.302 µM; Activity (Rattus norvegicus [27]): Non-toxic; Cmax [29]: 3920 ng/mL; Activity (Canis familiaris [31]): Toxic; AUC at 96 h [32]: 1240 ng·h/mL
CC(C)CNC(=O)[C@H]1C[C@@](F)(c2ccc(CN3CCCC3)c(F)c2)C1 [PF-03654764] | 38.8 ×10⁻⁶ cm/s | 30 min | ≥ 15 mg/kg | 0.34 | 30 min | 1.4 nM | 30 min | 0.56 | 67400 ng·h/mL | 7.9 nM | 18 µM | 1.2 nM and 1.05 nM | 9.2 | > 120 min | 23 µM | 0.96 | 18200 ng·h/mL | 19 nM | < 5 mL/min/kg | ≥ 300 mg/kg | Ratio Ki (Homo sapiens [34]): > 1000; bioavailability (in vivo [35]): 20.2%; Ratio Ki (Homo sapiens [36]): > 1000; Ratio Ki (Homo sapiens [37]): > 1000
CC(=O)N(C)C[C@H]1C[C@H](c2ccc(CN3CCCC3)c(Cl)c2)C1 | 53.4 ×10⁻⁶ cm/s | 30 min | < 30 mg/kg | 0.24 | 30 min | 14 nM and 12.9 nM | 30 min |  | 4440 ng·h/mL | 21 nM | 5.13 µM | 3.3 nM | 9.3 | > 120 min | 6.29 µM | 1.27 | 2910 ng·h/mL | 160 nM | < 8 mL/min/kg | ≥ 300 mg/kg | AUC at 168 h [38]: 4780 ng·h/mL; Activity (Canis familiaris [39]): Toxic; MED [40]: 245.3 µM; Cmax (in vivo [41]): 3200 ng/mL; Activity (Canis familiaris [42]): Toxic; AUC at 168 h [43]: 2910 ng·h/mL; Activity (Canis familiaris [44]): Toxic; AUC at 336 h [45]: ≤ 4440 ng·h/mL
